# Measurements: US20260191838A1, “COMBINATIONS COMPRISING A MENIN-MLL INHIBITOR AND A BCL-2 INHIBITOR” (JANSSEN PHARMACEUTICA NV, priority 2022, published 2026)
# System: MOLM-13 tumors in NSG mice
# Experiment: Efficacy (survival) in disseminated MOLM-13 (KMT2A-rearranged) IV model in NSG mice
# Format: in vivo
# Description: 4) Efficacy of Menin-KMT2A Inhibitor in Combination with Venetoclax, and Optionally, Azacitidine, in MOLM-13 (KMT2A-Rearranged) IV Model in NSG Mice
# Compound 51 was formulated in purified pyrogen-free deionized water, pH 4.0 and prepared to reach a total volume of 8 mL/kg. Doses were adjusted by individual body weight each day. Working stocks of Compound 51 were prepared once per week for each study and stored at 25° C.
# Female NSG (NOD.Cg-Prkdc^scid Il2rg^tm1Wj1/SzJ) mice were used when they were approximately 6 to 8 weeks of age and weighed approximately 25 g. All animals could acclimate and recover from any shipping-related stress for a minimum of 7 days prior to experimental use. Autoclaved water and irradiated food were provided ad libitum, and the animals were maintained on a 12 hour light and dark cycle. Cages, bedding, and water bottles were autoclaved before use and changed weekly. The tissue culture and cell injection reagents are summarized below in Table 5.
# Tumor Model and Cell Culture Method
# Human AML MOLM-13 cells were cultured at 37° C., 5% CO2 in the indicated complete culture media (RPMI 1640+10% HI-FBS+2 mM L-glutamine+50 μg/ml Gentamycin). Cells were harvested while in logarithmic growth and resuspended in cold (4° C.) Roswell Park Memorial Institute (RPMI) 1640 in serum-free medium.
# For the disseminated MOLM-13 model, each mouse received 1×10^5 cells via IV injection in a total volume of 0.2 mL using a 26-gauge needle.
# Day 0 is the day of tumor cell implantation and study initiation.
# Mice bearing IV MOLM-13 xenograft tumors were randomly assigned to treatment groups 5 days post-tumor cell engraftment.
# Animals were monitored daily for clinical signs related to either compound toxicity or tumor burden (i.e., hind limb paralysis, lethargy, etc.).
# For survival assessment, results were plotted as the percentage survival against days post tumor implant. Negative clinical signs and/or ≥20% body weight loss was used as a surrogate endpoint for death. Median survival was determined utilizing Kaplan-Meier survival analysis. The percent increased life span (ILS) was calculated as: ((median survival day of treated group−median survival day of control group)/median survival day of control group)×100. Animals failing to reach the surrogate endpoint due to adverse clinical signs or death unrelated to treatment were censored for the survival assessment. As defined by NCI criteria, ≅25% ILS is considered biologically significant. (Johnson J I et al. Br J Cancer. 2001. 84(10), 1424-1431).
# Survival and body weight data were graphically represented utilizing Prism (Version 9). Statistical significance for body weights was evaluated as described above. Statistical significance was evaluated for Kaplan-Meier survival plots comparing therapeutic treatment group vs. appropriate vehicle-treated control using log-rank (Mantel-Cox) test in R software version 3.4.2. Differences between groups were considered significant when the p value was ≤0.05.
# The disseminated MOLM-13 model described above was used to examine the efficacy of menin-KMT2A-inhibitor (formulated as described above) in combination with venetoclax (formulated in polyethylene glycol [PEG]-400/Phosal50/dimethyl sulfoxide [DMSO]), and optionally azacitidine (formulated in 0.9% saline). Treatment with compound(s) was initiated 5 days after cell injection. Compound 51 was given in the morning, and venetoclax or azacitidine was given in the afternoon, approximately 6-8 hr apart.
smiles,measurement,setting,value
CC(=O)N1CCC(CN2CC[C@@H](Cc3cn(-c4ccc(F)cc4C(=O)N(C)C(C)C)c4cncc(C)c34)C2)CC1 [Compound 51],"lifespan, Compound 51 in combination with venetoclax compared to venetoclax alone",MOLM-13 tumor-bearing mice,statistically significant increased lifespan
same,"lifespan, Compound 51 in combination with venetoclax plus azacitidine compared to doublet venetoclax plus azacitidine",MOLM-13 tumor-bearing mice,statistically significant increased lifespan
same,% ILS (increased life span),"NSG mice with established MOLM-13 tumors, 4 weeks treatment, azacitidine 2 mg/kg ip QD × 7, venetoclax 100 mg/kg po QD × 28, Compound 51 2 mg/kg po QD × 28 (Table 6)",5%
